What all share (format): biochemical
The target in assay [1] is T1, KIAA 1361 (baculovirus expressed human KIAA 1361 kinase domain 2-322) (Homo sapiens, UniProt Q7L7X3).
T1 construct: human KIAA 1361 kinase domain 2-322; made in house
T1 sequence (Q7L7X3 2-322): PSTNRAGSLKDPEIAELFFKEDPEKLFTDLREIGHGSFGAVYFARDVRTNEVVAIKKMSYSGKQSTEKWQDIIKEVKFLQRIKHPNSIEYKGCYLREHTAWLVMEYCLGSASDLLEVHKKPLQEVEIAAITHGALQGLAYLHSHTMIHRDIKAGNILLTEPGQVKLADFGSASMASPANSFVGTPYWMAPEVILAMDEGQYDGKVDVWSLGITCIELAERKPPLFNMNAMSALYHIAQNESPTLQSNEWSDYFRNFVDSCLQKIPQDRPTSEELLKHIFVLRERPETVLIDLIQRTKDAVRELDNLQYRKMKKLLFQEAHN
Briefly: KIAA 1361 Luciferase-Coupled Chemiluminescent Kinase assay (LCCA). The conditions noted are these: 2 μM ATP, 10 μM MBP, 12 nM KIAA 1361, 2 hours; read-out: KIAA1361 inhibition IC50. Summed up: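 KIAA 1361 kinase domain 2-322 (baculovirus, 12 nM) with 2 μM ATP and 10 μM MBP in Tris pH 7.5, MgCl2, MnCl2; 2 h, ambient. Remaining ATP read by luciferase chemiluminescence; 10 concentrations, IC50 by four-parameter fit.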

Assay [2] has as its target T2, TAO (Homo sapiens, UniProt Q9UL54).
T2 sequence (Q9UL54 1-1235): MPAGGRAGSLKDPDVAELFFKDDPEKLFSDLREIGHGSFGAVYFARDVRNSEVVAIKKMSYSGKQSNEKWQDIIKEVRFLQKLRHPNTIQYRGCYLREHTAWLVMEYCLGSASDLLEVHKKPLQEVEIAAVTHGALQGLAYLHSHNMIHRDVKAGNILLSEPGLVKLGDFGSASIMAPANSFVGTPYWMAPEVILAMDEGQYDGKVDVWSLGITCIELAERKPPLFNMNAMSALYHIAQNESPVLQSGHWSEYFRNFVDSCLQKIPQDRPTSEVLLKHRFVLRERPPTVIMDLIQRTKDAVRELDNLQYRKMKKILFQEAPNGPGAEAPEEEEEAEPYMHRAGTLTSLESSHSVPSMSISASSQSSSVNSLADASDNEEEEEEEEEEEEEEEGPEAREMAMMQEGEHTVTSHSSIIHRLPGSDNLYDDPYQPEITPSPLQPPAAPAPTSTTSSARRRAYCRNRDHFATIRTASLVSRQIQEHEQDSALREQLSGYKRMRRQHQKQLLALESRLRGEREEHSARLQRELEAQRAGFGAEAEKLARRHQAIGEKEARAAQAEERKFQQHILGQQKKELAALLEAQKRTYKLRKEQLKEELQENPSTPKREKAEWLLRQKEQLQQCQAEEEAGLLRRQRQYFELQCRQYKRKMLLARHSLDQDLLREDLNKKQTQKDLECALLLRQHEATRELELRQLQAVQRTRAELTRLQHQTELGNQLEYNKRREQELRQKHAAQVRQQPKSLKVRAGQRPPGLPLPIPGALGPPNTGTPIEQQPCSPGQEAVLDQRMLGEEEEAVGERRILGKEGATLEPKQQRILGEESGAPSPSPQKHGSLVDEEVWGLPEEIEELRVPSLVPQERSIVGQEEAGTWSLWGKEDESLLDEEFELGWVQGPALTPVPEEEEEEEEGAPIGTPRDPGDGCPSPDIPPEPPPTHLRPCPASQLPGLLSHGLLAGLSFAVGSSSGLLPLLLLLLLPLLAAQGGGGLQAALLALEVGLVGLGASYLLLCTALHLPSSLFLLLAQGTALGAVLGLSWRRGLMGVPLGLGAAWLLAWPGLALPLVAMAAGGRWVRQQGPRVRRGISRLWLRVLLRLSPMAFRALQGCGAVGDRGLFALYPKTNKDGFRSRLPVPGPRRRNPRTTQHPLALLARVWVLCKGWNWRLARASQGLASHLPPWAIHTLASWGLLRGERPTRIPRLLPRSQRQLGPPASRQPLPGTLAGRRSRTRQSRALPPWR
The assay can be described thus: TAO Luciferase-Coupled Chemiluminescent Kinase assay (LCCA). The settings on record: 2 μM ATP, 10 μM MBP, 12 nM TAO, 2 hours; read-out: TAO inhibition IC50.

Assay [3] addresses T3, JIK (Homo sapiens, UniProt Q9H2K8).
T3 construct: 6 nM JIK (baculovirus expressed human KIAA 1361 kinase domain2-318); made in house
T3 sequence (Q9H2K8 2-318): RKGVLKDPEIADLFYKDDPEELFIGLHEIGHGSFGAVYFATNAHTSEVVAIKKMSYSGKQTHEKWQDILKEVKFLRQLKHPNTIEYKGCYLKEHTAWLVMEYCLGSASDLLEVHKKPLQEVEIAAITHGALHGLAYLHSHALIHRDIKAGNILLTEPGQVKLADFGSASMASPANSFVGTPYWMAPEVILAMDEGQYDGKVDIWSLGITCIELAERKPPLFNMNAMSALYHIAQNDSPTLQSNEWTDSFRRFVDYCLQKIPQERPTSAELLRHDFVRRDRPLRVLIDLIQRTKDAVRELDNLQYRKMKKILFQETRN
Briefly: JIK Luciferase-Coupled Chemiluminescent Kinase assay (LCCA). The settings on record: 2 μM ATP, 10 μM MBP, 6 nM JIK, 2 hours; read-out: JIK inhibition IC50. An outline of the steps: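 Baculovirus-expressed human KIAA 1361 kinase domain 2-318 at 6 nM, with 10 μM MBP and 2 μM ATP in Tris pH 7.5 with Mg/Mn, ran 2 h at ambient temperature. Remaining ATP was read by luciferase chemiluminescence. IC50 comes from a 10-concentration four-parameter fit.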

One may read the IC50 as the concentration that inhibits the measured activity by half. Take “N-˜2˜-({[4-(1,1-dimethylethyl)phenyl]oxy}acetyl)-N-(1,2,3,4-tetrahydronaphthalen-1-yl)glycinamide [Entry 33]”: the values for the IC50 in assay [1], in assay [2] and in assay [3] were 500 to 5000 nM, more than 5 µM and 500 to 5000 nM, respectively.
Turning to `CCOCCCn1c(=S)[nH]c2cc(C(=O)NCC3COc4ccccc4O3)ccc2c1=O` (stereo not drawn) [Entry 39, N-(2,3-dihydro-1,4-benzodioxin-2-ylmethyl)-3-[3-(ethyloxy)propyl]-4-oxo-2-thioxo-1,2,3,4-tetrahydroquinazoline-7-carboxamide], the IC50 lay in the range of 50 to 500 nM in assay [1], 0.05 to 0.5 µM in assay [2] and 50 to 500 nM in assay [3].
Turning to `CCc1ccc(-c2ccc(C(=O)NC(C)C(=O)NC3CCc4ccccc4C3)cc2)cc1` (stereo not drawn) [Entry 5, 4′-ethyl-N-[1-methyl-2-oxo-2-(1,2,3,4-tetrahydronaphthalen-2-ylamino)ethyl]biphenyl-4-carboxamide], the values for the IC50 in assay [1], in assay [2] and in assay [3] were less than 50 nM, 0.05 to 0.5 µM and less than 50 nM, respectively.
For the compound `O=C(CNC(=O)N1CCN(c2ccccc2)CC1)NC1CCCc2ccccc21` (stereo not drawn) [Entry 91, N-[2-oxo-2-(1,2,3,4-tetrahydronaphthalen-1-ylamino)ethyl]-4-phenylpiperazine 1-carboxamide], the results for the IC50 in assay [1], in assay [2] and in assay [3] were more than 5000 nM, more than 5 µM and more than 5000 nM, respectively.
Regarding `CCc1ccc(-c2ccc(C(=O)NCC(=O)NCc3ccc(Cl)c(Cl)c3)cc2)cc1` [Entry 54, N-(2-{[(3,4-dichlorophenyl)methyl]amino}-2-oxoethyl)-4′-ethylbiphenyl-4-carboxamide], the concentration for half-maximal inhibition (IC50) in assay [1] is more than 5000 nM; in assay [2], more than 5 µM; in assay [3] it was more than 5000 nM.
Turning to `CCCCOc1ccc(C(=O)NC(C)C(=O)NC2CCc3ccccc3C2)cc1` (stereo not drawn) [Entry 18, 4-(butyloxy)-N-[1-methyl-2-oxo-2-(1,2,3,4-tetrahydronaphthalen-2-ylamino)ethyl]benzamide], the values for the IC50 in assay [1], in assay [2] and in assay [3] were 50 to 500 nM, 0.5 to 5 µM and 50 to 500 nM, respectively.
Turning to `COc1ccc(/C=C/C(=O)N[C@@H](COCc2ccccc2)C(=O)NC(c2ccccc2)c2ccccc2)cc1OC` [Entry 30, N˜2˜-{(2E)-3-[3,4-bis(methyloxy)phenyl]prop-2-enoyl}-N-(diphenylmethyl)-O-(phenylmethyl)serinamide], the IC50 in assay [1] was 500 to 5000 nM; in assay [2] it was more than 5 µM; in assay [3], 50 to 500 nM.
For the compound `CCc1ccc(-c2ccc(C(=O)NCC(=O)Nc3cccc4ccccc34)cc2)cc1` [Entry 67, 4′-ethyl-N-[2-(naphthalen-1-ylamino)-2-oxoethyl]biphenyl-4-carboxamide], the values for the concentration for half-maximal inhibition (IC50) in assay [1], in assay [2] and in assay [3] were less than 50 nM, 0.05 to 0.5 µM and less than 50 nM, respectively.
Regarding `O=C(CNC(=O)c1ccc(N2CCCCC2)cc1)NC1CCCc2ccccc21` (stereo not drawn) [Entry 77, N-[2-oxo-2-(1,2,3,4-tetrahydronaphthalen-1-ylamino)ethyl]-4-piperidin-1-ylbenzamide], the IC50 in assay [1] lay in the range of 500 to 5000 nM; in assay [2], 0.5 to 5 µM; in assay [3] it was 50 to 500 nM.
For `O=C(CNC(=O)c1cnc2ccccc2c1)Nc1cccc2c1CCCC2` [Entry 87, N-[2-oxo-2-(5,6,7,8-tetrahydronaphthalen-1-ylamino)ethyl]quinoline-3-carboxamide] the same measures were more than 5000 nM, more than 5 µM and more than 5000 nM.
Consider `CCc1ccc(-c2ccc(C(=O)NCC(=O)N3CCc4ccccc4C3)cc2)cc1` [Entry 60, N-[2-(3,4-dihydroisoquinolin-2(1H)-yl)-2-oxoethyl]-4′-ethylbiphenyl-4-carboxamide], for which the IC50 in assay [1] was more than 5000 nM; in assay [2], more than 5 µM; in assay [3] it was more than 5000 nM.
Take `CCCCOc1ccc(C(=O)NCC(=O)NC2CCCc3ccccc32)cc1` (stereo not drawn) [Entry 27, 4-(butyloxy)-N-[2-oxo-2-(1,2,3,4-tetrahydronaphthalen-1-ylamino)ethyl]benzamide]: the IC50 was in the range of 500 to 5000 nM in assay [1], 0.5 to 5 µM in assay [2] and 50 to 500 nM in assay [3].
For `O=C(CNC(=O)c1ccc2ncccc2c1)Nc1cccc2c1CCCC2` [Entry 86, N-[2-oxo-2-(5,6,7,8-tetrahydronaphthalen-1-ylamino)ethyl]quinoline-6-carboxamide], in that order: more than 5000 nM, more than 5 µM and more than 5000 nM.
For `CC(C)CC(NC(=O)c1ccc(-c2ccccc2)cc1)C(=O)NC1CCCc2ccccc21` (stereo not drawn) [Entry 32, N-{3-methyl-1-[(1,2,3,4-tetrahydronaphthalen-1-ylamino)carbonyl]butyl}biphenyl-4-carboxamide] the same measures were 500 to 5000 nM, more than 5 µM and 500 to 5000 nM.
Consider `CCc1ccc(-c2ccc(C(=O)NCC(=O)N3CCN(c4ccccc4)CC3)cc2)cc1` [Entry 68, 4′-ethyl-N-[2-oxo-2-(4-phenylpiperazin-1-yl)ethyl]biphenyl-4-carboxamide], for which the results for the IC50 in assay [1], in assay [2] and in assay [3] were more than 5000 nM, more than 5 µM and more than 5000 nM, respectively.
For `O=C(CNC(=O)c1ccc2ncccc2c1)NC1CCCc2ccccc21` (stereo not drawn) [Entry 80, N-[2-oxo-2-(1,2,3,4-tetrahydronaphthalen-1-ylamino)ethyl]quinoline-6-carboxamide], the figures for the concentration for half-maximal inhibition (IC50) in assay [1], in assay [2] and in assay [3] were 500 to 5000 nM, 0.5 to 5 µM and 50 to 500 nM, respectively.
For `O=C(CNC(=O)c1ccc(-c2cnco2)cc1)NC1CCCc2ccccc21` (stereo not drawn) [Entry 71, 4-(1,3-oxazol-5-yl)-N-[2-oxo-2-(1,2,3,4-tetrahydronaphthalen-1-ylamino)ethyl]benzamide] the same measures were 50 to 500 nM, 0.05 to 0.5 µM and less than 50 nM.
Take `COc1ccc2nc(NC(=O)CNC(=O)Cn3cnc4sc(C)c(C)c4c3=O)sc2c1` [Entry 40, N˜2˜-[(5,6-dimethyl-4-oxothieno[2,3-d]pyrimidin-3(4H)-yl)acetyl]-N-[6-(methyloxy)-1,3-benzothiazol-2-yl]glycinamide]: the half-inhibitory concentration (IC50) in assay [1] lay in the range of 50 to 500 nM; in assay [2], 0.5 to 5 µM; in assay [3], 50 to 500 nM.
In the case of `CCc1ccc(-c2ccc(C(=O)NCC(=O)NCc3ccccc3)cc2)cc1` [Entry 52, 4-ethyl-N-{2-oxo-2-[(phenylmethyl)amino]ethyl}biphenyl-4-carboxamide], the results for the half-inhibitory concentration (IC50) in assay [1], in assay [2] and in assay [3] were more than 5000 nM, more than 5 µM and more than 5000 nM, respectively.
